Experimental data reported in ChEMBL document CHEMBL2311411, “Lignans from Schisandra sphenathera Rehd. et Wils. and semisynthetic schisantherin A analogues: absolute configuration, and their estrogenic and anti-proliferative activity” (Eur J Med Chem, 2013).
Calls of active or inactive are those of the source. The rule behind the calls is not given here.

Legend:
[1] = Cytotoxicity against human U87 cells after 72 hrs by MTT assay; assay type: functional, cell-based, U-87MG ATCC
[2] = biological target: T1, DNA-binding protein inhibitor ID-1 (Homo sapiens) (UniProt P41134); assay: Inhibition of ID1 in human U87 cells at 100 uM by luciferase reporter gene assay; assay type: cell-based; conditions: U-87MG ATCC
T1 sequence (whole entry): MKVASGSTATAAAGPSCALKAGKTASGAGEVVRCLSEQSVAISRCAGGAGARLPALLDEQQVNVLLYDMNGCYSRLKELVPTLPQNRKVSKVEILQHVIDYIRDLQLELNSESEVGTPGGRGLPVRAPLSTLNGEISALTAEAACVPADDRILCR

MCF7 [3] = assay: Estrogenic activity in human MCF7 cells at 5 uM by luciferase reporter gene assay; assay type: functional, cell-based
HeLa = assay: Cytotoxicity against human HeLa cells after 72 hrs by MTT assay; assay type: functional, cell-based
SMMC-7721 = assay: Cytotoxicity against human SMMC7721 cells after 72 hrs by MTT assay; assay type: functional, cell-based; conditions: SMMC-7721, 72 h
[4] = Toxicity in brine shrimp larvae assessed as mortality after 24 hrs by microtiter plate analysis; assay type: organism-based; conditions: artemia salina, in vivo
[5] = Cytotoxicity against mouse LLC cells after 72 hrs by MTT assay; assay type: functional, cell-based; conditions: Lewis lung carcinoma
MCF7 [6] = assay: Estrogenic activity in human MCF7 cells at 1 uM by luciferase reporter gene assay; assay type: functional, cell-based
MCF7 [7] = assay: Estrogenic activity in human MCF7 cells by luciferase reporter gene assay; assay type: functional, cell-based
[8] = Homo sapiens, U-87 MG, 72 h, read-out: IC50

| Compound | IC50 [1, 8] [µM] | inhibition [2] [%] | IC50 ([1]; u-87mg atcc) | other results |
| --- | --- | --- | --- | --- |
| CCCCCC(=O)O[C@H]1c2cc(OC)c(OC)c(OC)c2-c2c(cc3c(c2OC)OCO3)C[C@H](C)[C@]1(C)O | 67.4 | 63.7 |  |  |
| COc1cc(C=O)c(-c2c(C[C@H](C)C(C)=O)cc3c(c2OC)OCO3)c(OC)c1OC |  | 46.1 | Not Active |  |
| COc1cc([C@H]2OC[C@]3(O)[C@@H](c4ccc(O)c(OC)c4)OC[C@H]23)ccc1O |  |  |  | Activity (MCF7 [3]): Active |
| CCCCCCCCCCCCCC(=O)O[C@H]1c2cc(OC)c(OC)c(OC)c2-c2c(cc3c(c2OC)OCO3)C[C@H](C)[C@]1(C)O |  | 21.4 | Not Active |  |
| COc1cc2c(c(OC)c1OC)-c1c(cc3c(c1OC)OCO3)C[C@H](C)[C@](C)(O)[C@H]2O [SCHISANTHEROL A] |  | 1 | Not Active |  |
| CCCCCCCC(=O)O[C@H]1c2cc(OC)c(OC)c(OC)c2-c2c(cc3c(c2OC)OCO3)C[C@H](C)[C@]1(C)O |  | 57.6 | Not Active |  |
| CCCCCCCCCCCC(=O)O[C@H]1c2cc(OC)c(OC)c(OC)c2-c2c(cc3c(c2OC)OCO3)C[C@H](C)[C@]1(C)O | 70 | 32.7 |  |  |
| COc1cc2c(c(OC)c1OC)-c1c(cc3c(c1OC)OCO3)C[C@H](C)[C@]1(CO1)[C@H]2OC(=O)c1ccccc1 [SCHISANDRIN A1] | > 100 |  |  | IC50 (HeLa): 50.8 µM; IC50 (SMMC-7721): > 100 µM; LC50 at 24 h [4]: 97.5 µg/mL; IC50 [5]: > 100 µM |
| CCCCCCCCCC(=O)O[C@H]1c2cc(OC)c(OC)c(OC)c2-c2c(cc3c(c2OC)OCO3)C[C@H](C)[C@]1(C)O | 58.8 | 46.9 |  |  |
| COc1ccc([C@H]2OC[C@]3(O)[C@@H](c4ccc(OC)c(O)c4)OC[C@H]23)cc1O |  |  |  | LC50 at 24 h [4]: > 100 µg/mL |
| COc1cc2c(c(OC)c1OC)-c1c(cc(OC)c(OC)c1OC)C[C@](C)(O)[C@@H](C)C2 [SCHIZANDRIN] | > 100 |  |  | IC50 (HeLa): > 100 µM; Activity (MCF7 [6]): Active; IC50 (SMMC-7721): > 100 µM; LC50 at 24 h [4]: > 100 µg/mL; IC50 [5]: > 100 µM |
| CCCCCCCCCCCCCCCC(=O)O[C@H]1c2cc(OC)c(OC)c(OC)c2-c2c(cc3c(c2OC)OCO3)C[C@H](C)[C@]1(C)O |  | 4.8 | Not Active |  |
| COc1c2c(cc3c1-c1c(cc4c(c1OC)OCO4)C[C@H](C)[C@H](C)C3)OCO2 [SCHISANDRIN C] | > 100 |  |  | IC50 (HeLa): > 100 µM; IC50 (SMMC-7721): > 100 µM; IC50 [5]: > 100 µM |
| COc1cc([C@H]2OC[C@]3(O)[C@@H](c4ccc(O)c(OC)c4)OC[C@]23O)ccc1O |  |  |  | Activity (MCF7 [3]): Active |
| CCCCCCC(=O)O[C@H]1c2cc(OC)c(OC)c(OC)c2-c2c(cc3c(c2OC)OCO3)C[C@H](C)[C@]1(C)O | 61.7 | 57.8 |  |  |
| C[C@]12CC[C@@H]3c4ccc(O)cc4CC[C@H]3[C@@H]1CC[C@@H]2O |  |  |  | Activity (MCF7 [7]): Dose-dependent effect |
| CCCC(=O)O[C@H]1c2cc(OC)c(OC)c(OC)c2-c2c(cc3c(c2OC)OCO3)C[C@H](C)[C@]1(C)O |  | 36.6 | Not Active |  |
| CC(=O)O[C@@H]1C[C@H](O)[C@@]23CO[C@@H](O)[C@]1(C)[C@@H]2C[C@@H](O)[C@]1(C)[C@@H]3C(=O)[C@H](OC(C)=O)[C@@]2(C)[C@H](c3ccoc3)C[C@H]3O[C@]321 [TOOSENDANIN] |  |  |  | LC50 at 24 h [4]: < 1 µg/mL |
| CCCCC(=O)O[C@H]1c2cc(OC)c(OC)c(OC)c2-c2c(cc3c(c2OC)OCO3)C[C@H](C)[C@]1(C)O |  | 36.3 | Not Active |  |
